{
  "source": "patent US7115586B2",
  "about": "“Non-inclusion cyclodextrin complexes” (Decode Genetics EHF., priority 2001, dated 2006)",
  "key": {"[1]": {"settings": "octanol/water partition coefficient, unionized form; cited from earlier work"}, "[2]": {"test": "Phase-solubility of cholesterol in aqueous cyclodextrin solutions", "format": "physicochemical", "settings": "aqueous solutions of various β-cyclodextrin derivatives (RMβCD, HPβCD, SBEβCD, TMAβCD, CMβCD), ambient temperature (FIG. 7)", "source_text": "This left a very thin layer of cholesterol on the inner surface of the vials."}, "physchem [3]": {"test": "physchem", "settings": "22.5 °C, pH 6, aqueous buffer, thermodynamic from solid"}, "[4]": {"test": "Job's plots (continuous variation, NMR and UV)", "format": "physicochemical", "settings": "sodium salts, buffered solutions (FIG. 3)", "experimental": "The total molar concentration (i.e., the combined concentration of drug and HPβCD in moles per liter) was kept constant, but the mole fraction of HPβCD (i.e., [HPβCD]/([drug]+[HPβCD])) were varied from 0.1 to 0.9. The buffer salts were dissolved in 30% (v/v) D2O in water and appropriate amounts of drug and HPβCD were dissolved in the buffer solution. […] […]. The NMR spectra were recorded at 297 K on a Bruker AZ250P 250 MHZ spectrometer (USA). The UV-detector used was a Perkin-Elmer Lambda 3A Spectrophotometer (USA)."}, "physchem [5]": {"test": "physchem", "settings": "22.5 °C, pH 8.36, aqueous with cosolvent or surfactant or cyclodextrin, thermodynamic from solid"}, "[6]": {"test": "Phase-solubility in aqueous HPβCD solutions"}, "[7]": {"test": "Experiment A: solubility of alprazolam and diflunisal sodium salt in 10% HPβCD", "settings": "for solubility at 7 days: 22.5 °C, pH 8.36, aqueous with cosolvent or surfactant or cyclodextrin, thermodynamic from solid"}, "[8]": {"test": "Viscosity (Brookfield digital viscometer)", "format": "physicochemical", "settings": "20% (w/v) HPβCD solution"}, "[9]": {"settings": "pure water at approximately 25° C.; cited from earlier work"}},
  "note": "Where “and” joins values, the source holds several entries; their conditions need not be identical. Identical values can stand only once. Counter-ions that a name gives are not always drawn. Like-named read-outs stand apart in the source and are kept apart here.",
  "data": [
    {"compound": "CC(C)Cc1ccc(C(C)C(=O)[O-])cc1.[Na+]", "note": "(stereo not shown) [ibuprofen sodium salt]", "values": [
      {"measurement": "slope of phase-solubility diagram", "setting": "pH 6.12", "value": 1.12},
      {"measurement": "slope of phase-solubility diagram", "setting": "pH 6.28", "value": 1.17},
      {"measurement": "slope of phase-solubility diagram", "setting": "pH 6.72", "value": 1.12}
    ]},
    {"compound": "O=C(O)c1cc(-c2ccc(F)cc2F)ccc1O", "note": "[sodium salt of diflunisal, diflunisal sodium salt]", "values": [
      {"measurement": "slope of phase-solubility diagram", "setting": "pH 8.36", "value": 1.1},
      {"measurement": "type of phase-solubility diagram", "setting": "pH 8.36", "value": "AL-type"}
    ]},
    {"compound": "O=C(O)Cc1ccccc1Oc1ccc(Cl)cc1Cl", "note": "[fenclofenac]", "values": [
      {"measurement": "log P", "setting": "[1]", "value": 4.8}
    ]},
    {"compound": "CC(C)CCC[C@@H](C)[C@H]1CC[C@H]2[C@@H]3CC=C4C[C@@H](O)CC[C@]4(C)[C@H]3CC[C@]12C", "note": "[cholesterol]", "values": [
      {"measurement": "type of phase-solubility diagram", "setting": "[2]", "value": "AP-type"},
      {"measurement": "log P", "setting": "[1]", "value": 8.5}
    ]},
    {"compound": "carotene", "values": [
      {"measurement": "log P", "setting": "[1]", "value": "> 10"}
    ]},
    {"compound": "CC/C(=C(/CC)c1ccc(O)cc1)c1ccc(O)cc1", "note": "[Diethylstilbestrol]", "values": [
      {"measurement": "Complexation efficiency (slope/(1 − slope))", "setting": "pH 6", "value": 2},
      {"measurement": "Slope of the phase-solubility diagram", "setting": "pH 6", "value": 0.71},
      {"measurement": "shape of phase-solubility diagram", "setting": "pH 6", "value": "non-linear"},
      {"measurement": "type of phase-solubility diagram", "setting": "pH 6", "value": "AL-type"},
      {"measurement": "solubility at 7 days", "setting": "physchem [3]", "value": 10, "unit": "µM"}
    ]},
    {"compound": "Oc1cc(Cl)ccc1Oc1ccc(Cl)cc1Cl", "note": "[triclosan]", "values": [
      {"measurement": "log P", "setting": "[1]", "value": 4.8}
    ]},
    {"compound": "O=C(O)c1cc(-c2ccc(F)cc2F)ccc1O", "note": "[diflunisal]", "values": [
      {"measurement": "mole fraction of HPβCD in the complex (Job's plots)", "setting": "[4]", "value": 0.5},
      {"measurement": "slope of phase-solubility diagram", "setting": "pH 6", "value": 1.1},
      {"measurement": "type of phase-solubility diagram", "setting": "pH 6", "value": "AL-type"},
      {"measurement": "log P", "setting": "[1]", "value": 4.4},
      {"measurement": "solubility at 7 days", "setting": "physchem [5]", "value": "~47", "unit": "mg/mL"}
    ]},
    {"compound": "CC(C)CCC[C@@H](C)[C@H]1CC[C@H]2C3=CC=C4C[C@@H](O)CC[C@]4(C)[C@H]3CC[C@]12C", "note": "[dehydrocholesterol]", "values": [
      {"measurement": "log P", "setting": "[1]", "value": 7.8}
    ]},
    {"compound": "Cc1nnc2n1-c1ccc(Cl)cc1C(c1ccccc1)=NC2", "note": "[Alprazolam]", "values": [
      {"measurement": "solubility at 7 days", "setting": "[6]; 22.5 °C, pH 6, aqueous buffer, thermodynamic from solid", "value": 200, "unit": "µM"},
      {"measurement": "type of phase-solubility diagram", "setting": "[6]; HPβCD containing pH 6.0 aqueous phosphate buffer solution, no second drug (FIG. 4)", "value": "AL-type"},
      {"measurement": "type of phase-solubility diagram", "setting": "[6]; aqueous HPβCD solutions saturated with the sodium salt of diflunisal (FIGS. 5, 6)", "value": "AL-type"},
      {"measurement": "type of phase-solubility diagram", "setting": "[6]; in the presence of ibuprofen (FIG. 4A)", "value": "AL-type"},
      {"measurement": "increase in solubility", "setting": "[7]; 10% HPβCD saturated with diflunisal vs 10% HPβCD alone", "value": 108, "unit": "%"},
      {"measurement": "solubility at 7 days", "setting": "[7]; 10% (w/v) HPβCD solution previously saturated with diflunisal", "value": "1230 µg/mL and 3980 µM"},
      {"measurement": "solubility at 7 days", "setting": "[7]; 10% aqueous HPβCD solution, unbuffered, room temperature", "value": "590 µg/mL and 1910 µM"}
    ]},
    {"compound": "2-Hydroxypropyl-β-cyclodextrin", "values": [
      {"measurement": "viscosity", "setting": "[8]", "value": 2.10, "unit": "cPoise"}
    ]},
    {"compound": "β-cyclodextrin sulfobutyl ether sodium salt", "values": [
      {"measurement": "Solubility in water", "setting": "[9]", "value": ">500", "unit": "mg/mL"}
    ]},
    {"compound": "CC(C)Cc1ccc(C(C)C(=O)O)cc1", "note": "(stereo not shown) [ibuprofen]", "values": [
      {"measurement": "mole fraction of HPβCD in the complex (Job's plots)", "setting": "[4]", "value": 0.5},
      {"measurement": "effect of increase in ionic strength on solubility", "setting": "pH 6", "value": "does not effect"},
      {"measurement": "slope of phase-solubility diagram", "setting": "pH 6", "value": 1.2},
      {"measurement": "type of phase-solubility diagram", "setting": "pH 6", "value": "AL-type"}
    ]}
  ]
}
